Test [1] addresses T1, Neutrophil elastase (Homo sapiens, UniProt P08246).
T1 sequence (P08246 whole entry): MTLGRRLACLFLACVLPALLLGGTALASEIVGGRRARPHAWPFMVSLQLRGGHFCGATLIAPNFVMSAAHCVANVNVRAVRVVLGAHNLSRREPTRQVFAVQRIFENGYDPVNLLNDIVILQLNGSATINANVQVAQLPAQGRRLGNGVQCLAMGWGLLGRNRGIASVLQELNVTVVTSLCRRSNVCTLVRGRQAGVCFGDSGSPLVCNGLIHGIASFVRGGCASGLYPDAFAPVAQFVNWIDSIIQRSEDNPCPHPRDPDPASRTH
Nature of the test: In vitro inhibitory activity against human leukocyte elastase.

The test system of test [2] is Cricetinae gen. sp. Nature of the test: Effective dose required to inhibit elastase induced pulmonary hemorrhage (EPH) lung model in hamsters. Format: functional, Cricetulus griseus.

The values that follow come from ChEMBL document CHEMBL1151492, “elastase inhibitors containing conformationally restricted lactams as P3-P2 dipeptide replacements” (Bioorg Med Chem Lett, 1993).

Several values for one entry are separate records, joined by “and”; a condition that tells them apart may be missing. Identical values can stand only once.

For `CC(C)C(NC(=O)CN1CCCC[C@H](NC(=O)c2ccc(C(=O)NS(=O)(=O)c3ccc(Cl)cc3)cc2)C1=O)C(=O)C(F)(F)F` (stereo not given in full), in test [1], the IC50 (usually the concentration that inhibits the measured activity by half) is greater than 5 µM.

`CC(C)C(NC(=O)CN1CCC[C@H](NC(=O)c2ccc(C(=O)NS(=O)(=O)c3ccc(Cl)cc3)cc2)C1=O)C(=O)C(F)(F)F` (stereo not given in full) showed an IC50 in test [1] greater than 5 µM.

For the molecule `CC(C)C(NC(=O)CN(C(=O)[C@@H](NC(=O)c1ccc(C(=O)NS(=O)(=O)c2ccc(Cl)cc2)cc1)C(C)C)C1Cc2ccccc2C1)C(=O)C(F)(F)F` (stereo not given in full), in test [2], the ED50 amounted to 4.8 µM. With `CC(C)C(NC(=O)CN1C(=O)[C@@H](NC(=O)c2ccc(C(=O)NS(=O)(=O)c3ccc(Cl)cc3)cc2)C[S+]([O-])c2ccccc21)C(=O)C(F)(F)F` (stereo not given in full), the IC50 in test [1] was 6.8 µM and 6.2 µM. In test [1], `CC(C)C(NC(=O)CN1CC[C@H](NC(=O)c2ccc(C(=O)NS(=O)(=O)c3ccc(Cl)cc3)cc2)C1=O)C(=O)C(F)(F)F` (stereo not given in full) displayed an IC50 greater than 5 µM.
